ChEMBL document CHEMBL1123319, “Synthesis and biological activity of 5-phenylselenenyl-substituted pyrimidine nucleosides” (J Med Chem, 1986)
One block for each compound: values may come before it. Active and inactive are the calls of the source. No cut-off for these calls is given here.

Legend:
HL-60 [1] = test: Anticancer activity was evaluated for the compound against parent promyelocytic leukemia cell line (HL-60-GHPRT+/dCK+); assay type: functional; settings: Homo sapiens, read-out: ED50 (the source's name)
Mus musculus = organism: Mus musculus; test: (§1) Compound was tested in mice for the cytotoxicity against the herpes simplex virus type 1 (strain F) in plaque; Inactive; assay type: functional, organism-based
HL-60 [2] = test: Anticancer activity was evaluated for the compound against ara-C resistant promyelocytic leukemia cell line that is Cyd-kinase deficient (HL-60-HGPRT-/dCK-); assay type: functional; settings: Homo sapiens, read-out: ID50 (the source's name)
[3] = biological target: Thymidylate synthase (Mus musculus) (UniProt P07607); test: Inhibition of thymidylate synthase in L1210 cells; assay type: cell-based
Thymidylate synthase (Mus musculus), sequence (P07607 whole entry, looked up): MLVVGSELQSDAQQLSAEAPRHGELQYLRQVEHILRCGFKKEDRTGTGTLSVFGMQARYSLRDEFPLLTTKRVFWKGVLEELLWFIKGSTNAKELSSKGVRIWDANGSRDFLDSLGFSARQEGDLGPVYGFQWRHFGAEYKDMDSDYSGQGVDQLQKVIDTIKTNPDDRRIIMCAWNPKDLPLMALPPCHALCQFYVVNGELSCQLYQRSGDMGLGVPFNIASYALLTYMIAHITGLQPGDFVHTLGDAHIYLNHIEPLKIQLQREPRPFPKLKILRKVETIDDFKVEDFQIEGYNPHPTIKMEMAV

[4] = compound was evaluated for its ability to inhibit tritium release using 1 uM [5-3H]-dUrd for the cellular enzyme assay.; assay type: functional
HL-60 [5] = test: Anticancer activity of the compound against ara-C resistant promyelocytic leukemia cell line that is Cyd-kinase deficient (HL-60-HGPRT-/dCK-) is determined; assay type: functional; settings: Homo sapiens, read-out: ED50 (the source's name)
Human alphaherpesvirus 1 = test: as §1; assay type: organism-based; settings: human alphaherpesvirus 1, in vivo
[6] = biological target: Thymidylate synthase (Mus musculus) (UniProt P07607); test: Compound was evaluated for its ability to inhibit tritium release using 1 uM [5-3H]-dCyd for the cellular enzyme assay.
[7] = biological target: Thymidylate synthase (Mus musculus) (UniProt P07607); test: compound was evaluated for its ability to inhibit tritium release using 1 uM [5-3H]-dUrd for the cellular enzyme assay; Inactive

SMILES: O=c1[nH]c(=O)n([C@@H]2O[C@H](CO)[C@@H](O)[C@@H]2O)cc1[Se]c1ccccc1
EC50 (HL-60 [1]): 88 µM
LD50 (Mus musculus): inactive

SMILES: Nc1nc(=O)n([C@@H]2O[C@H](CO)[C@@H](O)[C@@H]2O)cc1[Se]c1ccccc1
IC50 (HL-60 [2]): 375 µM
ED50 [3]: 25 µM
ID50 [4]: 60 µM

EC50 (HL-60 [1]): 0.047 µM
EC50 (HL-60 [5]): 30 µM
ED50 [3]: 0.03 µM
SMILES: Nc1ccn([C@@H]2O[C@H](CO)[C@@H](O)[C@@H]2O)c(=O)n1 [CYTARABINE]

SMILES: O=c1[nH]c(=O)n([C@H]2C[C@H](O)[C@@H](CO)O2)cc1[Se]c1ccccc1
LD50 (Human alphaherpesvirus 1): Not Active
ID50 [6]: 70 µM
ID50 [7]: inactive
